Holding throughout (assay type): in vivo, mice
For one assay, the system named is HSPCs. The experiment in a line: Mobilization of HSPCs into peripheral blood (CFU-HPC assay). The method, then:
Mice were administered the β-adrenergic agonists isoproterenol (10 mg/kg i.p.), clenbuterol (5 mg/kg i.p.) and BRL 37344 (10 mg/kg i.p.), the cannabinoid receptor agonists ACEA (10 mg/kg i.p.) and GP1a (5 mg/kg i.p.), or vehicle either on 4 consecutive days or 2 hours prior to the cull. 1 hour after the last injection, mice were administered the CXCR4 antagonist AMD3100 (5 mg/kg i.p.) or vehicle. 1 hour later their blood was collected via cardiac puncture for enumeration of circulating CFU-HPCs and CFU-Fs. Mice were administered murine G-CSF (100 μg/kg i.p.) or vehicle on 4 consecutive days. On day 5, blood was collected via cardiac puncture for enumeration of circulating HSPCs.
Harvested peripheral blood or perfusate was red blood cell-lysed and 1×10^5 cells were added to tissue culture-treated petri dishes containing 1 ml of Methocult™ (M3434; StemCell Technologies) to select for CFU-HPCs. Cultures were incubated at 37° C. and quantified on day 12. Similarly, 1×10^6 bone marrow cells harvested by bone marrow flush of the hind limb femur were plated for CFU-HPCs.

The subject of another assay is CFU-Fs (MSCs). The experiment in a line: In situ perfusion of mouse hind limb, CFU-Fs in perfusate. The conditions noted are these: four day pretreatment, b3 adrenergic agonist in combination with FAAH inhibitor. How it is done: Mice were administered BRL 37344 (10 mg/kg i.p.) or vehicle on 4 consecutive days. 1 hour after the last injection, the mice were anaesthetized. The femoral vein and artery were exposed and cannulated in situ immediately after the hind limb was isolated by occlusion of the surrounding arteries as previously described (Pitchford et al, 2009; Pitchford et al, 2010). Perfusion buffer was infused via the arterial cannula and removed from the venous cannula using a Minipuls Peristaltic Pump (Anachem). The hind limb was initially infused with AMD3100 (0.1 mM) or vehicle for 10 minutes using an infusion/withdrawal pump (Harvard Instruments) and was further perfused for 50 minutes with perfusion buffer (Pitchford et al, 2010). The perfusate was collected over 60 minutes and then centrifuged and resuspended in DMEM (Gibco) +20% fetal bovine serum for enumeration of CFU-HPCs and CFU-Fs.
Harvested peripheral blood or perfusate was red blood cell-lysed and 1×10^6 cells were added to tissue culture-treated 6-well plates containing 3 ml of Mesencult™ (05502; StemCell Technologies) to select for CFU-Fs. Similarly, 1×10^6 bone marrow cells harvested by bone marrow flush of the hind limb femur were plated for CFU-Fs. Cultures were incubated at 37° C. and media was changed on day 7. Bone marrow-derived CFU-Fs were enumerated on day 13 and blood- and perfusate-derived CFU-Fs were enumerated on day 21. Blood derived-CFU-Fs were further expanded and assessed for mesenchymal lineage markers by flow cytometry and following CD45 depletion (flow cytometry sorting of CD45 negative for mesenchymal trilineage differentiation (Supplemental Experimental Procedures).

Another assay concerns CXCL12. The assay can be described thus: CXCL12 ELISA of bone marrow supernatant. The conditions noted are these: 4 days of treatment, bone marrow 2 hours after final injection. The method, then:
(A) Mice were pretreated with BRL 37344 (β3), G-CSF or vehicle (VEH) once daily on 4 consecutive days. 2 hours after the final BRL 37344 injection or 24 hours after the final G-CSF injection, bone marrow was collected for quantification of CXCL12 levels (n=16 and n=6-8, respectively). (B) Bone marrow cells were collected from naïve mice and were treated in vitro with clenbuterol (β2), BRL 37344 (β3) or vehicle (VEH). CFU-Fs per 10^6 cells are shown (n=6 mice per group). (C) Mice were pre-treated with AM 251, AM 630, BRL 37344 (β3) or vehicle (VEH) once daily on 4 consecutive days. 2 hours after the last injection, bone marrow cells were collected for enumeration of CFU-Fs. CFU-Fs per 10^6 cells are shown (n=6-8 mice per group). (D) CB1 receptor antagonist AM 251 (CB1l, CB2 receptor antagonist AM 630 (CB2l, BRL 37344 (β3) or vehicle. Data represented as mean±SEM. (A) **p<0.01 (unpaired student t-test) and (B-D) *p<0.05, **p<0.01, ***p<0.001 (one-way ANOVA).
CXCL12 content in blood plasma and bone marrow supernatant was quantified using CXCL12 capture (MAB350) and detection (BAF351) antibodies (RnD systems), and the assay was performed according to the manufacturers' instructions. Recombinant mouse CXCL12 (RnD systems) was used to generate a standard curve.
A general note: In an ELISA, binding on a coated surface is turned into a signal by an enzyme label.

The structures appear in SMILES notation.

`C[C@H](Cc1ccc(OCC(=O)O)cc1)NC[C@H](O)c1cccc(Cl)c1` [BRL37344]: the “pre-treatment time needed for HSPC mobilization” value in the assay with HSPCs (2 h versus 4 d pre-treatment, then AMD3100) is “required the pre-treatment of mice over 4 days to see this effect”. Moreover, in the assay with HSPCs (pre-treated once daily for 4 days, then AMD3100, blood 1 hour later), the “circulating HSPC numbers” value is “significantly boosted circulating numbers of HSPCs and CFU-Fs as compared to that observed with isoproterenol and AMD3100 in combination”. The “MSC egress from the bone marrow in response to infusion of the CXCR4 antagonist” value in the assay on CFU-Fs (MSCs) is “significantly enhanced both HPC and MSC egress from the bone marrow”. Also, the “levels of CXCL12 in the bone marrow” value in the assay on CXCL12 is listed as “had no effect on levels of CXCL12 in the bone marrow”.
